{
  "source": "patent US9962427B2",
  "about": "“Treatment of right ventricular dysfunction due to pressure overload” (OTTAWA HOSPITAL RESEARCH INSTITUTE, priority 2016, dated 2018)",
  "key": {"[1]": {"system": "cardiomyocytes", "method": "FIG. 7B Quantitation of cell viability analysis as shown in (A). FIG. 7C Quantification of PI cell viability FACS analysis following a 24 hrs treatment of cardiomyocytes with H2O2 in the presence or absence of hCT1. Pre-treatment with PI3K inhibitor (LY294002, 50 μM) before H2O2 was also tested.\nCardiomyocytes were treated with control serum-free media or with H2O2 (300 μM, 1 hr) to induce cell death in the presence or absence of hCT1 (0.5 nM). After 24 hrs, cells were incubated with the cell viability marker Propidium Iodide (PI) (1 μg/mL) and analyzed by FACS (Ex: 535 nm, Em: 617 nm) for viable cells; i.e. cells inside the gated region of the side scatter (SS) versus PI plot (FIG. 7A). […] The PI3K pathway is a critical feature of physiological cardiac adaptive compensation and is a key protective feature distinguishing it from pathological adaptive compensation. Therefore, cardiomyocytes were pre-treated with a PI3K inhibitor (LY294002, 50 μM) before CT-1/H2O2 treatment."}, "[2]": {"system": "rats", "assay": "M-mode ECHO after 2 weeks of osmotic minipump delivery in rats", "format": "in vivo, rat", "settings": "ISO 1 mg/kg/day", "method": "FIGS. 3A, 3B, and 3C. […] Arrows (in upper panels) point to myocardial wall (RVLW). Dotted lines (in lower panels) show inner ventricle chambers.\nCT-1 was tested in vivo to determine whether its administration would induce a myocardial adaptive remodeling characteristic of physiologic compensation (FIGS. 3A, 3B, and 3C). Osmotic minipumps containing PBS control (Ctrl) or hCT1 (6 μg/kg/hr) or Isoproterenol (ISO, 1 mg/kg/day) were implanted subcutaneously in rats. ISO is a beta-adrenergic receptor agonist and continuous infusion with ISO in rats is known to induce pathological cardiac hypertrophy and cardiomyocyte damage (in both the right and left ventricles) which progresses to heart failure (Morisco et al (2001) J Mol Cell Cardiol 33:561-573 and Grimm et al (1998) Cardiovascular Research 37:91-100). After 2 weeks of treatment, M-mode ECHO analysis was used to assess myocardial structure/function (FIG. 3A). In this model, an increased right ventricle lateral wall (RVLW) thickness indicates the presence of myocardiocytes growth, and an increased ratio of the right to left ventricle internal diameters (RVID/LVID) is an indicator of pathologic hypertrophy. An increased RVLW thickness but constant or reduced RVID:LVID ratio is an indicator of adaptive compensatory RV remodeling. Both hCT1 and ISO induced a significant increase in RVLW thickness (12% and 32% fold increase, respectively) compared to control rats (n=3; * and **, P<0.05). […] An in vivo growth reversal analysis was also conducted. Following a 2 week delivery of CT-1 protein (6 μg/kg/hr) or PE (10 mg/kg/day) as the pathologic control in this case, animals were then assessed for cardiac structure/function at a 6 week follow-on period. […] Collectively, these studies support the contention that CT-1 elicits a reversible physiologic cardiac adaptive compensation."}, "[3]": {"system": "Mef2", "assay": "Mef2 luciferase reporter in primary neonatal cardiomyocytes", "format": "cell-based", "settings": "hCT1 0.5 nM, PE 100 μM, PAC-1 25 μM", "method": "(§1) FIGS. 6A, 6B, and 6C. Stimulation with hCT1 causes sustained activation of NF-κB and Stat3 with limited activation of Mef2, as well as limited Nfat activation; the latter two indices are distinct expression patterns from pathologic hypertrophic stimulation. FIG. 6A Primary neonatal cardiomyocytes were transfected with luciferase reporter plasmids (NF-κB or Mef2), as indicators of hypertrophic activity. Luciferase activity was measured after treatments for 24 hrs with: hCT1 (0.5 nM), PE (100 μM), or procaspase 3 activating compound 1, PAC-1 (25 μM) (left). Treatments at early timepoints (30 min, 1 hr, and 3 hr) were also conducted for hCT1 (right). FIG. 6B Primary neonatal cardiomyocytes were transfected with a luciferase reporter plasmid for Stat3. Luciferase activity was measured after treatments for 24 hrs with: hCT1 (0.5 nM), PE (100 μM), or procaspase 3 activating compound 1, PAC-1 (25 μM) (left) and at earlier time points (right). FIG. 6C Primary neonatal cardiomyocytes were infected with a luciferase-based Nfat reporter Adenovirus (Nfat-AdV). Luciferase activity was measured after treatments for 24 hrs with: hCT1 (0.5 nM), PE (100 μM), or procaspase 3 activating compound 1, PAC-1 (25 μM) (left) and at earlier time points (right)\nThe signaling pathways that CT-1 engages in mediating physiologic adaptive compensatory remodeling were examined. The applicants predicted that cardiomyocyte adaptive remodeling mediated by CT-1 results (in part) from the induction of a specific transcriptional program, which is distinct from that of pathologic hypertrophic response. To address this hypothesis, the applicants tested the activity of two well-known transcription factor families that have been linked to both physiologic and pathologic cardiomyocyte growth, the Mef2 (Kolodziejczyk et al. 1999 Curr Biol. 9, 1203-1206; Kim et al. 2008, J Clin Invest. 118, 124-132.) and the NF-κB family (Gordon et al. 2011, Circ Res. 108, 1122-1132). Primary neonatal cardiomyocytes were transfected with luciferase reporter plasmids (NF-κB and Mef2) to be used as a read out of transcriptional activity. Luciferase activity was determined after treatments for 24 hrs with: hCT1 (0.5 nM), PE (100 μM), or procaspase 3 activating compound 1, PAC-1 (25 μM). […] This pattern of transcription factor activation was distinct from that induced by PE and by the caspase 3 specific activating compound PAC-1."}, "[4]": {"system": "NFAT", "assay": "NFAT luciferase reporter adenovirus (Nfat-AdV) in cardiomyocytes", "format": "cell-based", "settings": "as early as 3 hours, up to 24 hours; PE 100 μM, PAC-1 25 μM", "method": "as §1\nApplicants tested this supposition by infecting cardiomyocytes with an NFAT luciferase reporter linked to an Adenovirus (AdV) backbone (FIG. 6C). Cardiomyocytes were infected at a […] (MOI) of 20 with Nfat-AdV for 24 hours prior to stimulation with hCT1 (0.5 nM), PE (100 μM), or procaspase 3 activating compound 1, PAC-1 (25 μM). As an initial positive control, co-infection of NFAT-AdV with activated Calcineurin-AdV (a phosphatase and potent activator of NFAT signalling) caused a significant increase in NFAT activity (n=4; *, P<0.05). […] Although the exact mechanism of inhibition is unknown, Applicant has shown CT-1 engaging a PI3K signalling pathway and it would be reasonable to postulate that phosphorylation of NFAT by CT-1/PI3K signalling would limit NFAT activity."}, "[5]": {"system": "STAT3", "assay": "STAT3 luciferase reporter in cardiomyocytes", "format": "cell-based", "settings": "30 minutes up to 24 hours; hCT1 0.5 nM, PE 100 μM, PAC-1 25 μM", "method": "as §1\nMoreover, it is reasonable to assume that CT-1 may moderate the activity of additional transcription factors, which further contribute to the adaptive compensation phenotype. As such, Applicants decided to test the hypothesis that STAT3 (Signal transducer and activator of transcription 3) dependent transcriptional activity is a specific determinant for CT-1 induced physiologic adaptive compensation. STAT3 phosphorylation and transcriptional activation is a response that is common to the Interleukin-6 cytokine family (of which CT-1 is a member), which is mediated through binding and activation of a JAK/gp130 (Janus kinase/[…]) receptor complex."}, "[6]": {"system": "Vascular Endothelial Growth Factor—VEGF", "assay": "VEGF expression by immunofluorescence in primary cardiomyocytes", "format": "cell-based", "settings": "24 hours; hCT1 0.5 nM, PE 100 μM, PAC-1 25 μM", "method": "FIGS. 8A and 8B. […] FIG. 8B Microarray analysis of primary cardiomyocytes stimulated with hCT1 (0.5 nM) for 24 hours.\nApplicant explored the role of CT-1 as a pro-angiogenic factor in the adaptive hypertrophic response. Physiologic cardiac adaptive compensation is associated with an increase in capillary density, whereas pathologic response is characterized by a decline or no change at all. Importantly, the compensatory vascular growth/angiogenesis that occurs during physiologic adaptive compensation is permissive for the increased workload that accompanies physiologic adaptive compensation. Despite this adaptation, little information exists regarding the mechanisms that match the demand for angiogenesis to the beneficial form of myocardial growth. The rapid in vitro and in vivo adaptive compensation in response to CT-1 supports a hypothesis that the cardiomyocyte itself may act in a paracrine fashion, to signal and promote angiogenesis. To address this conjecture, Applicant examined whether CT-1 treated primary cardiomyocytes produced vascular endothelial growth factor (VEGF), an angiogenic factor known to be produced and secreted by cardiomyocytes. Primary cardiomyocytes were incubated with control serum-free media (Ctrl, SF media) or stimulated with hCT1 (0.5 nM), PE (100 μM), or PAC-1 (25 μM) for 24 hours. Immunofluorescence was used to detect α-actinin, Vascular Endothelial Growth Factor—VEGF, and nuclei. […] Based on these observations Applicant next conducted a comparative gene expression analysis of control (non-stimulated) versus CT-1 treated (0.5 nM, 24 hours) primary cardiomyocytes, using the Affymetrix Rat gene 2.0ST array."}},
  "data": [
    {"smiles": "OO", "note": "[H2O2, hydrogen peroxide]", "values": [
      {"measurement": "cardiomyocyte viability decreased vs. control", "setting": "[1]; 1 h, 300 μM", "value": 24, "unit": "%"},
      {"measurement": "decrease in viability vs. control", "setting": "[1]; 24 h", "value": 70, "unit": "%"}
    ]},
    {"smiles": "CC(C)NCC(O)c1ccc(O)c(O)c1", "note": "(stereo not drawn) [ISO, Isoproterenol, reference compound]", "values": [
      {"measurement": "increase in the RVID/LVID ratio", "setting": "[2]", "value": 24, "unit": "%"},
      {"measurement": "increase in RVLW thickness compared to control rats", "setting": "[2]; hCT1 6 μg/kg/hr, subcutaneous minipump", "value": 32, "unit": "% fold increase"}
    ]},
    {"smiles": "O=c1cc(N2CCOCC2)oc2c(-c3ccccc3)cccc12", "note": "[LY294002]", "values": [
      {"measurement": "decrease in viability compared to cells treated only with hCT1/H2O2", "setting": "[1]; pre-treatment with LY294002 50 μM before CT-1/H2O2 (FIG. 7C)", "value": 46, "unit": "%"}
    ]},
    {"smiles": "C=CCc1cccc(/C=N/NC(=O)CN2CCN(Cc3ccccc3)CC2)c1O", "note": "[PAC-1, procaspase 3 activating compound 1, reference compound]", "values": [
      {"measurement": "Mef2 activation after 24 hrs", "setting": "[3]", "value": "significant activation of Mef2"},
      {"measurement": "NFAT activity compared to baseline levels", "setting": "[4]", "value": "significant increase of NFAT activity"},
      {"measurement": "STAT3 activation", "setting": "[5]", "value": "only minimal (if any) activation"},
      {"measurement": "VEGF expression (immunofluorescence)", "setting": "[6]", "value": "less VEGF expression"}
    ]}
  ]
}
